Reference: patent US20250287950A1, “FUNGICIDAL USE” (Adama Makhteshim Ltd., priority 2021, published 2025)

How the values were obtained:
[1] = system: Mycosphaerella fijiensis (black sigatoka); assay: Black sigatoka open field trial in banana, one application (Example 8a); assay type: in vivo
Description: To test for fungicidal control of Mycosphaerella fijiensis the trial was realized in open field. […] Each of the above treatments was applied once when plants were showing a disease infection of 5%. The treatments composed of 4 replicates. The experimental design was a randomized complete block design. Data was analyzed using an ANOVA at the 95% confidence interval.
The level of infection was determined based on the weighted average of infection (PPI) using the Stover scale modified by Gaulh on 5 plants per plot.

[2] = system: Mycosphaerella fijiensis (black sigatoka); assay: Black sigatoka open field trial in banana, 12 applications, leaves per plant (Example 8b); assay type: in vivo; conditions: folpet 850 g a.i./ha
Description: To test fungicidal control of Mycosphaerella fijiensis, the trial was realized in open field. […] All treatments were applied in a water solution: no mineral oil added.
Experimental unit consisted of 9 banana plants surrounded by Musa textilis, a variety tolerant to Black Sigatoka, used as border plants. The trial followed a complete randomized design, each treatment was replicated three times.
Applications were done every 6 days. All treatments had 12 applications.
The total leaves per plant was evaluated. A high number of leaves at harvest translates to more capability keep the fruit in post-harvest.
Treatment response to black Sigatoka was evaluated using the Stover scale modified by Gauhl.
The statistical analysis was done with INFOSTAT program, using a multiple comparison test (LSD) for every parameter.

O=C1c2ccccc2C(=O)N1SC(Cl)(Cl)Cl [folpet]
efficacy relative to the mancozeb reference product (in words) ([1]; dose of 750 g a.i./ha): comparable to the one provided by the reference product based on mancozeb | control of black sigatoka disease (in words) ([1]; low doses of 500 and 625 g a.i./ha): good control | number of leaves per plant in comparison to the untreated and the mancozeb standard (in words) [2]: higher number of leaves per plant
